Paper PMC9416494, “Cinnamaldehyde and Curcumin Prime Akt2 for Insulin-Stimulated Activation” (Nutrients, 2022)
Like-named read-outs stand apart in the source and are kept apart here.

Columns and labels:
Akt2 = assay: cIEF immunoassay of Akt2 and p-Akt2 (S474) in primary human subcutaneous preadipocytes; format: cell-based; conditions: for change of Akt2 cIEF electropherogram versus untreated control / change of Akt2 cIEF electropherogram versus insulin alone / increase of p-Akt2 (S474) compared to insulin treatment alone / p-Akt2 (S474) induction: 30 min; for change of Akt2 cIEF electropherogram versus untreated control: insulin 100 nM; for change of Akt2 cIEF electropherogram versus untreated control / increase of p-Akt2 (S474) compared to insulin treatment alone / p-Akt2 (S474) induction: cinnamaldehyde 40 µM, curcumin 20 µM; for change of Akt2 cIEF electropherogram versus untreated control / p-Akt2 (S474) induction: okadaic acid 5 nM, PTP1Bi 4 µM; for change of Akt2 cIEF electropherogram versus insulin alone / increase of p-Akt2 (S474) compared to insulin treatment alone: together with insulin 100 nM; for p-Akt2 (S474) induction: treatment without added insulin (insulin itself 100 nM)
Method: (§1) Primary human subcutaneous preadipocytes were obtained from Zen-Bio (Cat. No. SP-F-1, Lot #L031219A, Durham, NC, USA) and maintained at 37 °C and 5% CO2 in growth medium comprising Minimum Essential Medium α (cat. no. 12571063, Thermo Fisher Scientific, Waltham, MA, USA) supplemented with 10% fetal bovine serum, 100 units/mL penicillin, and 100 µg/mL streptomycin. […] The donor was undergoing elective surgery and signed an Institutional Review Board validated donor consent form that specifically lists both the intended uses for non-clinical research and confirms the procedures for processing the samples are Standard Operating Procedure managed Good Laboratory Practices protocols in compliance with ethical regulations. All samples were collected and processed in the United States.
(§2) Existing growth media of primary human subcutaneous preadipocytes were replaced with new growth media premixed with treatment compounds and incubated at 37 °C and 5% CO2 for 30 min prior to the collection of total cell extracts. The final concentrations of treatment compounds were as follows: insulin (100 nM, Humulin R, Eli Lilly, Indianapolis, IN, USA), cinnamaldehyde (40 µM, cat. no. W228613, Sigma Aldrich, St. Louis, MO, USA), curcumin (20 µM, cat. no. C7727, Sigma Aldrich, St. Louis, MO, USA), okadaic acid (5 nM, cat. no. ab120375, Cambridge, MA, USA), and PTP1Bi (4 µM, cat. no. 15782, Cayman Chem, Ann Arbor, MI, USA). The concentrations of treatment compounds were selected based on their ability to induce maximal effects on the PTM profile of Akt2, which were experimentally determined.
(§3) Approximately one million cells were incubated on ice for 10 min with 60 µL of lysis buffer (cat. no. 040-764, ProteinSimple, Santa Clara, CA, USA), sonicated 4 times for 5 s each, mixed by rotation for 2 h at 4 °C, and centrifuged at 12,000 rpm in an Eppendorf 5430R microfuge for 20 min at 4 °C. The supernatant was collected as the cell lysate. The total protein concentration in the cell lysate was determined with a Bradford protein assay and adjusted to a final concentration of 0.3 µg/µL with separation gradients (cat. no. Premix G2, pH 5–8, ProteinSimple, Santa Clara, CA, USA) for charge-based cIEF immunoassays.
(§4) Cell lysates in separation gradients were loaded into 384-well assay plates (cat. no. 040-663, ProteinSimple, Santa Clara, CA, USA), which were preloaded with primary and secondary antibodies and chemiluminescent substrates. Charge-based protein separation and detection in individual capillaries were performed using the default protocols of the NanoPro 1000 system (ProteinSimple, Santa Clara, CA, USA). HSP70 was used as the loading control. All cIEF immunoassays were performed in triplicate for each protein, and triplicate experiments were performed for each treatment condition, producing nine repeated measurements per protein analyte.
(§5) Protein abundance was quantified using the Compass software from ProteinSimple (Santa Clara, CA, USA) and normalized with that of HSP70 for cIEF immunoassays or β-actin for capillary Western assays. HSP70 and β-actin served as loading controls.

PP2A = target: T1, PP2A (Homo sapiens, UniProt P67775); assay: Ser/Thr phosphatase assay (malachite green), recombinant PP2A; format: biochemical
T1 construct: purchased Cayman Chem 10011237
T1 sequence (P67775 1-308 limits assumed): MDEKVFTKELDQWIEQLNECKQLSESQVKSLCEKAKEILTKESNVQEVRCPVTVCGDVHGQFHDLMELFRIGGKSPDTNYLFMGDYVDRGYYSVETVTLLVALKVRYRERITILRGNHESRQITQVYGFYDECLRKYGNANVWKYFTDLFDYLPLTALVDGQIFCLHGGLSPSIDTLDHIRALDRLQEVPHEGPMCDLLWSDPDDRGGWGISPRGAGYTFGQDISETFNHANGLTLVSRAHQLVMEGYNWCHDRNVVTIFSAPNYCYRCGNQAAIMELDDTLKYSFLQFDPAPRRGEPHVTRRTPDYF
Method: (§6) Ser/Thr phosphatase assay kit (cat. no. 17-127, Millipore, Temecula, CA, USA) was used to detect PP2A activity by dephosphorylation of the phosphopeptide R-K-pT-I-R-R using malachite green detection. Likewise, a protein tyrosine phosphatase assay kit (cat. no. 17-125, Millipore, Burlington, MA, USA) was used to detect PTP1B activity by dephosphorylation of the phosphopeptide R-R-L-I-E-D-A-E-pY-A-A-R-G using malachite green detection. Experimental procedures were performed according to the manufacturer’s protocols. Recombinant PP2A (cat. no. 10011237, Cayman Chem, Ann Arbor, MI, USA) and PTP1B (cat. no. 10010896, Cayman Chem, Ann Arbor, MI, USA) were used. Dephosphorylation reactions were performed at room temperature for 30 min in the presence of serially diluted okadaic acid, PTP1Bi, cinnamaldehyde, or curcumin. The reactions were terminated by the addition of […] malachite green solution and allowed color development to proceed for 15 min at room temperature. Phosphatase activities were measured using absorbance at 650 nm in a microtiter plater reader (Synergy 2, BioTek, Winooski, VT, USA).

PTP1B = target: T2, PTP1B (Homo sapiens, UniProt P18031); assay: Protein tyrosine phosphatase assay (malachite green), recombinant PTP1B; format: biochemical; conditions: 30 min, room temperature, read-out: IC50, PTP1B inhibition
T2 construct: purchased Cayman Chem 10010896
T2 sequence (P18031 1-321 limits assumed): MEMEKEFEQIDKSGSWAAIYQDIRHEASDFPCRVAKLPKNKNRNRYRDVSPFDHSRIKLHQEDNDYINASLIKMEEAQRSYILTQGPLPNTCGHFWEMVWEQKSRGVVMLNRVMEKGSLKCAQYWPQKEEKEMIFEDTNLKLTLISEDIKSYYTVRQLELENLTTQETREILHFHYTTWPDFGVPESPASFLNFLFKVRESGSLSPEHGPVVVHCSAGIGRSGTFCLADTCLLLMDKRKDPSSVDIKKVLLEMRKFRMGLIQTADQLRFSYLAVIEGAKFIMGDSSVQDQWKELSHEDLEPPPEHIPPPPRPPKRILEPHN
Method: as §6

Akt1 = assay: cIEF immunoassay of Akt1 in primary human subcutaneous preadipocytes; format: cell-based; conditions: for effect on Akt1 cIEF electropherogram: 30 min; for effect on insulin-stimulated phosphorylation of Akt1: with insulin, cIEF of p-Akt1 (S473) and standard Western
Method: as §1, §2, §3, §4, §5

Akt3 = assay: cIEF immunoassay of Akt3 in primary human subcutaneous preadipocytes; format: cell-based; conditions: for effect on Akt3 cIEF electropherogram: 30 min; for effect on insulin-stimulated phosphorylation of Akt3: with insulin
Method: as §1, §2, §3, §4, §5

pan-Akt [1] = assay: cIEF immunoassay of pan-Akt phosphoisoforms in primary human subcutaneous preadipocytes; format: cell-based; conditions: 30 min, versus untreated control
Method: as §1, §2, §3, §4, §5

ERK1/2 = assay: cIEF immunoassay of ERK1/2 phosphorylation; format: cell-based, human; conditions: following treatment
Method: as §2
as §4, with “All cIEF immunoassays were performed in triplicate for each protein, and triplicate experiments were performed for each treatment condition, producing nine repeated measurements per protein analyte.” left out

pan-Akt [2] = assay: Capillary Western immunoassay of p-Akt in primary human subcutaneous preadipocytes; format: cell-based; conditions: insulin 30 min
Method: as §1, §2
The total protein concentration in the cell lysate was determined with a Bradford protein assay and adjusted to a final concentration of 0.4 µg/µL with denaturing buffers (cat. no. PS-ST01EZ or PS-ST03EZ, ProteinSimple, Santa Clara, CA, USA) for size-based Western immunoassays. […]
Protein abundance was quantified using the Compass software from ProteinSimple (Santa Clara, CA, USA) and normalized with that of HSP70 for cIEF immunoassays or β-actin for capillary Western assays. […]

[3] = recombinant PP2A, 30 min, room temperature, read-out: IC50, PP2A inhibition

Compound	IC50 (PP2A; [3])	IC50 (PTP1B)	change of Akt2 cIEF electropherogram versus untreated control (Akt2)	change of Akt2 cIEF electropherogram versus insulin alone (Akt2)	increase of p-Akt2 (S474) compared to insulin treatment alone (Akt2)	p-Akt2 (S474) induction (Akt2)	effect on Akt1 cIEF electropherogram (Akt1)	effect on insulin-stimulated phosphorylation of Akt1 (Akt1)	effect on Akt3 cIEF electropherogram (Akt3)	effect on insulin-stimulated phosphorylation of Akt3 (Akt3)	abundance of p-Akt (S124) at pI 5.74 (pan-Akt [1])	abundance of p-Akt (S246) at pI 5.74 (pan-Akt [1])	abundance of p-Akt (Y475) at pI 5.74 (pan-Akt [1])	effect on p-Akt (T308) (pan-Akt [1])	p-Akt (T450) phosphorylation (pan-Akt [1])	ERK1/2 phosphorylation (ERK1/2)	further results
O=c1cc(N2CCOCC2)oc2c(-c3ccccc3)cccc12 [LY294002, reference compound]	–	–	–	–	–	–	–	–	–	–	–	–	–	–	–	–	effect on cinnamaldehyde or curcumin-induced phosphorylation of Akt2 (Akt2; PI3K inhibitor with cinnamaldehyde or curcumin): unable to inhibit; effect on insulin-stimulated phosphorylation of Akt2 (Akt2; PI3K inhibitor with insulin): abrogates
O=C/C=C/c1ccccc1 [cinnamaldehyde]	~40 µM	~4 µM	new peak at pI 5.41	induced the appearance of a new Akt2 isoform at pI 5.15	approximately 3.5 fold	Neither untreated control preadipocytes or preadipocytes treated with cinnamaldehyde or curcumin had a detectable level	neither cinnamaldehyde or curcumin had any observable effect	promote insulin-stimulated phosphorylation of Akt1	neither cinnamaldehyde or curcumin had any observable effect	no observable effect	increased the abundance	increased the abundance	increased the abundance	no observable effect	increased phosphorylation at the T450 residue	increased ERK1/2 phosphorylation	–
COc1cc(/C=C/C(=O)CC(=O)/C=C/c2ccc(O)c(OC)c2)ccc1O [curcumin]	~20 µM	~25 µM	new peak at pI 5.41	induced the appearance of a new Akt2 isoform at pI 5.15	approximately 3.5 fold	Neither untreated control preadipocytes or preadipocytes treated with cinnamaldehyde or curcumin had a detectable level	neither cinnamaldehyde or curcumin had any observable effect	promote insulin-stimulated phosphorylation of Akt1	neither cinnamaldehyde or curcumin had any observable effect	no observable effect	increased the abundance	increased the abundance	increased the abundance	no observable effect	increased phosphorylation at the T450 residue	increased ERK1/2 phosphorylation	–
C=C1[C@@H](O)[C@@H]2O[C@]3(CC[C@H](/C=C/[C@@H](C)[C@@H]4CC(C)=C[C@@]5(O[C@H](C[C@@](C)(O)C(=O)O)CC[C@H]5O)O4)O3)CC[C@H]2O[C@@H]1[C@@H](O)C[C@H](C)[C@H]1O[C@@]2(CCCCO2)CC[C@H]1C [okadaic acid, reference compound]	–	–	induced the appearance of a new Akt2 isoform at pI 5.20	–	–	Neither okadaic acid nor PTP1Bi treatment individually was capable of inducing	–	–	–	–	–	–	–	–	–	–	IC50 (PP2A): ~0.0005 µM
insulin [reference compound]	–	–	pI 5.20 and 5.30	–	–	induced the appearance of p-Akt2 (S474)	no observable effect	–	induced the appearance of new Akt2 and Akt3 isoforms at low pI values	–	–	–	–	–	–	–	abundance of p-Akt (S473) (pan-Akt [2]): increased the abundance; abundance of p-Akt (T308) (pan-Akt [2]): increased the abundance; abundance of p-Akt (T450) (pan-Akt [2]): increased the abundance
